Ki and IC90 data for 17 compounds are collected here from ChEMBL document CHEMBL1130778, “The synthesis and evaluation of cyclic ureas as HIV protease inhibitors: modifications of the P1/P1' residues” (Bioorg Med Chem Lett, 1998).

In experiment [1] the target is Human immunodeficiency virus type 1 protease (Human immunodeficiency virus 1, UniProt Q72874). Nature of the experiment: HIV protease inhibition.
For experiment [2], the system named is Human immunodeficiency virus 1. In words: Whole cell antiviral activity. It is filed as functional.

On to `O=C1N(Cc2ccccc2)[C@H](Cc2ccc(OCCO)cc2)[C@H](O)[C@@H](O)[C@@H](Cc2ccc(OCCO)cc2)N1Cc1ccccc1`, for which the Ki in experiment [1] was 0.76 nM. In addition, the IC90 in experiment [2] was determined as 78 nM.

As for `CNCCOc1ccc(C[C@@H]2[C@H](O)[C@@H](O)[C@@H](Cc3ccc(OCCNC)cc3)N(Cc3ccccc3)C(=O)N2Cc2ccccc2)cc1`, the inhibition constant Ki in experiment [1] was 1.6 nM. The same compound returned an IC90 in experiment [2] of 800 nM. Turning to `O=C1N(Cc2ccccc2)[C@H](Cc2ccc(OCCN3CCOCC3)cc2)[C@H](O)[C@@H](O)[C@@H](Cc2ccc(OCCN3CCOCC3)cc2)N1Cc1ccccc1`, in experiment [1], affinity was put at a Ki of 5.9 nM. Besides, in experiment [2], the IC90 turned out to be 230 nM. Take `O=C1N(Cc2ccccc2)[C@H](Cc2ccc(OCc3ccncc3)cc2)[C@H](O)[C@@H](O)[C@@H](Cc2ccc(OCc3ccncc3)cc2)N1Cc1ccccc1`: the affinity in experiment [1], expressed as Ki, was 0.84 nM. The compound further registered an IC90 in experiment [2] of 100 nM. `O=C1N(Cc2cccc(-c3cc[nH]n3)c2)[C@H](Cc2ccc(OCc3ccncc3)cc2)[C@H](O)[C@@H](O)[C@@H](Cc2ccc(OCc3ccncc3)cc2)N1Cc1cccc(-c2cc[nH]n2)c1`: the Ki in experiment [1] worked out at 0.071 nM. The same compound gave an IC90 in experiment [2] of 18 nM. The matching figures for `COc1ccc(C[C@@H]2[C@H](O)[C@@H](O)[C@@H](Cc3ccc(OC)cc3)N(Cc3cccc(-c4cc[nH]n4)c3)C(=O)N2Cc2cccc(-c3cc[nH]n3)c2)cc1`: 0.078 nM and 10 nM.

Regarding `O=C1N(Cc2ccccc2)[C@H](Cc2ccccc2)[C@H](O)[C@@H](O)[C@@H](Cc2ccccc2)N1Cc1ccccc1`, the 90% effect concentration (IC90) in experiment [2] was determined as 790 nM. Regarding `O=C1N(Cc2ccccc2)[C@H](Cc2ccc(O)cc2)[C@H](O)[C@@H](O)[C@@H](Cc2ccc(O)cc2)N1Cc1ccccc1`, in experiment [2], it took 184 nM to reach the 90% level (IC90). On to `O=C1N(Cc2cccc(-c3cc[nH]n3)c2)[C@H](Cc2ccc(O)cc2)[C@H](O)[C@@H](O)[C@@H](Cc2ccc(O)cc2)N1Cc1cccc(-c2cc[nH]n2)c1`, for which the inhibition constant (Ki) in experiment [1] stood at 0.016 nM. It took 1340 nM to reach the 90% level in experiment [2] (IC90). The matching figures for `O=C1N(Cc2cccc(-c3cc[nH]n3)c2)[C@H](Cc2ccc(OCc3cccnc3)cc2)[C@H](O)[C@@H](O)[C@@H](Cc2ccc(OCc3cccnc3)cc2)N1Cc1cccc(-c2cc[nH]n2)c1`: 0.059 nM and 32 nM. `O=C1N(Cc2cccc(-c3cc[nH]n3)c2)[C@H](Cc2ccccc2)[C@H](O)[C@@H](O)[C@@H](Cc2ccccc2)N1Cc1cccc(-c2cc[nH]n2)c1` registered a concentration for an effect of 90% (IC90) in experiment [2] of 56 nM. This lies in the double-digit nanomolar range. Regarding `O=C1N(Cc2cccc(-c3cc[nH]n3)c2)[C@H](Cc2ccc(OCCN3CCOCC3)cc2)[C@H](O)[C@@H](O)[C@@H](Cc2ccc(OCCN3CCOCC3)cc2)N1Cc1cccc(-c2cc[nH]n2)c1`, the Ki in experiment [1] amounted to 0.13 nM. Also, it took 1030 nM to reach the 90% level in experiment [2] (IC90). The matching figures for `CN(C)CCOc1ccc(C[C@@H]2[C@H](O)[C@@H](O)[C@@H](Cc3ccc(OCCN(C)C)cc3)N(Cc3cccc(-c4cc[nH]n4)c3)C(=O)N2Cc2cccc(-c3cc[nH]n3)c2)cc1`: 0.061 nM and 5400 nM. The matching figures for `O=C1N(Cc2cccc(-c3cc[nH]n3)c2)[C@H](Cc2ccc(OCCO)cc2)[C@H](O)[C@@H](O)[C@@H](Cc2ccc(OCCO)cc2)N1Cc1cccc(-c2cc[nH]n2)c1`: 0.059 nM and 462 nM. The compound `COc1ccc(C[C@@H]2[C@H](O)[C@@H](O)[C@@H](Cc3ccc(OC)cc3)N(Cc3ccccc3)C(=O)N2Cc2ccccc2)cc1` came in with a concentration for an effect of 90% (IC90) in experiment [2] of 600 nM. In other words, the sub-micromolar range. As for `O=C1N(Cc2ccc(CO)cc2)[C@H](Cc2ccccc2)[C@H](O)[C@@H](O)[C@@H](Cc2ccccc2)N1Cc1ccc(CO)cc1` [DMP-323], the affinity in experiment [1] corresponds to a Ki of 0.29 nM. The same compound gave an IC90 in experiment [2] of 91 nM. On to `Nc1cccc(CN2C(=O)N(Cc3cccc(N)c3)[C@H](Cc3ccccc3)[C@H](O)[C@@H](O)[C@H]2Cc2ccccc2)c1` [MOZENAVIR], for which it took 126 nM to reach the 90% level in experiment [2] (IC90).

As usually defined, the Ki is the equilibrium dissociation constant of an inhibitor or competing ligand from its target. A high value points to a looser hold on the target. A word on the IC90: it is the point of the concentration-response curve where the effect stands at 90%. A higher IC90 goes with a need for much substance.
